Consider 23 compounds from patent US10414774B2, “Compound useful for altering the levels of bile acids for the treatment of diabetes and cardiometabolc disease” (Merck Sharp & Dohme Corp., priority 2016, dated 2019).

The test deals with T1, Human CYP8B1 (Homo sapiens, UniProt Q9UNU6).
T1 sequence (Q9UNU6 1-501): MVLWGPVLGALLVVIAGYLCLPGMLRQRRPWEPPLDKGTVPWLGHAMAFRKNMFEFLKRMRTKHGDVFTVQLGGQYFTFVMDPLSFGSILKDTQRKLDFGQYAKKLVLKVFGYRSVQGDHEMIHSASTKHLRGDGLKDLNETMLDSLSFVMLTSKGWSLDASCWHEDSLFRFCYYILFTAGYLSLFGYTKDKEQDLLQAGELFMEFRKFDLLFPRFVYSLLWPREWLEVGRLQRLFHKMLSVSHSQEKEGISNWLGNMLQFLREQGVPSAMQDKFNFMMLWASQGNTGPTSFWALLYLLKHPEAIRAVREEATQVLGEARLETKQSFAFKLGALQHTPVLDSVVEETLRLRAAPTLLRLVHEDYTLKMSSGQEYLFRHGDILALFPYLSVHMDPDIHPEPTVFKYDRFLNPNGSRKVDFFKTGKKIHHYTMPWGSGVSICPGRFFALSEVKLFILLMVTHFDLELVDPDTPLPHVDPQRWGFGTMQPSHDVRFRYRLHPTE
As to the kind of experiment: Human CYP8B1 Liver Microsome Assay. The following applies: Human CYP8B1 IC50, human liver microsomes; substrate 7a-hydroxy-4-cholesten-3-one, NADPH; RapidFire MS detection of 7α,12α-dihydroxy-4-cholesten-3-one. (In general: Liver microsomes are vesicles of endoplasmic reticulum, rich in cytochrome P450 enzymes.)

The IC50 is the midpoint of a concentration-inhibition curve. The low end stands for inhibition by little substance, the high end for a need for much substance.

Description: To a 384 well polypropylene plate (Corning 3656), 250 nl of inhibitor in 100% DMSO (1.25% final DMSO concentration) was pre-plated using an Echo liquid handler (Labcyte Inc.). Human liver microsomes (Xenotech) were diluted in of 0.1 M phosphate buffer, pH 7.4, at a concentration of 65 μg/ml and 15 μL was added to the 384 well plate. The plates were incubated at ambient room temperature for 30 minutes. After pre-incubation with inhibitor, the reaction was initiated by adding 5 μl of substrate solution (4.0 μM 7a-hydroxy-4-cholesten-3-one (Toronto Research Chemicals), 2 mM of NADPH (Sigma), 0.1 M phosphate buffer (pH 7.4). The reaction was carried out for 45 minutes at ambient room temperature and was quenched by the addition of 50 μl of acetonitrile+0.1% vol/vol formic acid (FA)+300 nM 7α-hydroxy-4-cholesten-3-one-d7 (Toronto Research Chemicals). The plates were sealed and centrifuged at 3000 rpm for 5 minutes. Plates were loaded onto the Agilent RapidFire RF300 HTMS system, wherein samples were sipped for 600 ms, and the sip sensor detection signals the diversion of sample from the loop onto a C4 solid phase extraction (SPE) cartridge, where salts are washed off for 2500 ms with a mobile phase of water with 0.1% vol/vol FA at a flow rate of 1.5 ml/min. The column path was switched, and the sample was eluted off the cartridge and flowed into the mass spectrometer for 3000 ms with a mobile phase of acetonitrile and 0.1% vol/vol FA at a flow rate of 1.25 ml/min. The aspirator tip was washed separately with water and acetonitrile between sample aspirations (each for 600 ms) to minimize carryover contamination. Mass spectrometry was carried out using a Sciex API4000 triple quadrupole mass spectrometer (Applied Biosystems, Concord, ON, Canada) equipped with electrospray ionization (ESI) operated in the positive-ion mode. The product 7α,12α-dihydroxy-4-cholesten-3-one and internal standard 7α-hydroxy-4-cholsten-3-one-d7 were detected using multiple reaction monitoring (MRM) with Q1/Q3 transitions at m/z 417.3 to 381.3 and m/z 408.3 to 390.3, respectively, with a dwell time of 100 ms and a collision energy of 24 V for each transition. The mass spectrometer used an ESI voltage of 5000 V and a source temperature of 650° C. Extracted ion chromatograms for each transition were integrated and processed using the RapidFire Integrator software. The data for each well were normalized by monitoring product conversion with the ratio of AUCproduct/(AUCinternal standard). The data was then fitted to a four parameter logistic fit using ActivityBase Software to calculate an IC50 of the inhibitor.

In the case of `C[C@@H]1CN(c2c(C#N)cnc3ccc(Cl)cc23)CCN1C(=O)N1CCn2c(nnc2C(F)(F)F)C1` [Example 128, 6-chloro-4-[(3R)-3-methyl-4-{[3-(trifluoromethyl)-5,6-dihydro[1,2,4]triazolo[4,3-a]pyrazin-7(8H)-yl]carbonyl}piperazin-1-yl]quinoline-3-carbonitrile], the IC50 is 2.9 nM.

Compound `C[C@@H]1CN(c2c(C#N)cnc3cc(OCC4CC4)ccc23)CC[C@@H]1C(=O)N1CCn2c(nnc2C(F)(F)F)C1` [Example 100, 7-(cyclopropylmethoxy)-4-[(3S,4S)-3-methyl-4-{[3-(trifluoromethyl)-5,6-dihydro[1,2,4]triazolo[4,3-a]pyrazin-7(8H)-yl]carbonyl}piperidin-1-yl]quinoline-3-carbonitrile] returned an IC50 of 0.35 nM.

Take `COc1cc(Cl)cc2c(N3CC[C@H](C(=O)N4CCn5c(nnc5C(F)(F)F)C4)[C@H](C)C3)c(C#N)cnc12` [Example 18, 6-chloro-8-methoxy-4-[(3S,4S)-3-methyl-4-{[3-(trifluoromethyl)-5,6-dihydro[1,2,4]triazolo[4,3-a]pyrazin-7(8H)-yl]carbonyl}piperidin-1-yl]quinoline-3-carbonitrile]: inhibition was half-maximal at 0.53 nM (IC50).

In the case of `Cc1nc2ccc(Cl)cc2c(N2CC[C@H](C(=O)N3CCc4oncc4C3)[C@H](C)C2)c1C#N` [Example 97, 6-chloro-4-[(3S,4S)-4-(6,7-dihydroisoxazolo[4,5-c]pyridin-5(4H)-ylcarbonyl)-3-methylpiperidin-1-yl]-2-methylquinoline-3-carbonitrile], the IC50 stood at 4.2 nM.

For the compound `C[C@@H]1CN(c2c(C#N)cnc3c(F)c(F)c(F)cc23)CC[C@@H]1C(=O)N1CCn2c(nnc2C(F)(F)F)C1` [Example 7, 6,7,8-trifluoro-4-[(3S,4S)-3-methyl-4-{[3-(trifluoromethyl)-5,6-dihydro[1,2,4]triazolo[4,3-a]pyrazin-7(8H)-yl]carbonyl}piperidin-1-yl]quinoline-3-carbonitrile], the IC50 was determined as 1.1 nM.

In turn, `C[C@@H]1CN(c2c(C#N)cnc3cc(F)ccc23)CC[C@@H]1C(=O)N1CCn2c(nnc2C(F)(F)F)C1` [Example 6, 7-fluoro-4-[(3S,4S)-3-methyl-4-{[3-(trifluoromethyl)-5,6-dihydro[1,2,4]triazolo[4,3-a]pyrazin-7(8H)-yl]carbonyl}piperidin-1-yl]quinoline-3-carbonitrile] gave a concentration for half-maximal inhibition (IC50) of 2.1 nM.

`N#Cc1cnc2ccc(Cl)cc2c1C1CCC(C(=O)N2CCn3c(nnc3C(F)(F)F)C2)CC1` (mixture of isomers) [Example 124, 6-chloro-4-(4-{[3-(trifluoromethyl)-5,6-dihydro[1,2,4]triazolo[4,3-a]pyrazin-7(8H)-yl]carbonyl}cyclohexyl)quinoline-3-carbonitrile] displayed an IC50 of 110 nM.

`N#Cc1cnc2ccc(Cl)cc2c1N1CCN(C(=O)N2CCn3c(nnc3C(F)(F)F)C2)C2(CC2)C1` [Example 127, 6-chloro-4-(4-{[3-(trifluoromethyl)-5,6-dihydro[1,2,4]triazolo[4,3-a]pyrazin-7(8H)-yl]carbonyl}-4,7-diazaspiro[2.5]oct-7-yl)quinoline-3-carbonitrile] registered an IC50 of 98 nM.

For the compound `COc1ccc2c(N3CCC(C(=O)N4CCn5c(nnc5C(F)(F)F)C4)CC3)c(C#N)cnc2c1` [Example 44, 7-methoxy-4-(4-{[3-(trifluoromethyl)-5,6-dihydro[1,2,4]triazolo[4,3-a]pyrazin-7(8H)-yl]carbonyl}piperidin-1-yl)quinoline-3-carbonitrile], the IC50 turned out to be 32 nM.

Take `CC1CN(C(=O)C2CCN(c3c(C#N)cnc4ccc(Cl)cc34)CC2)Cc2nnc(C(F)(F)F)n21` (centres unmarked) [Example 112, 6-chloro-4-(4-{[5-methyl-3-(trifluoromethyl)-5,6-dihydro[1,2,4]triazolo[4,3-a]pyrazin-7(8H)-yl]carbonyl}piperidin-1-yl)quinoline-3-carbonitrile]: 69.7 nM corresponded to half-maximal inhibition (IC50).

`CC(C)Oc1ccc2c(N3CC[C@H](C(=O)N4CCn5c(nnc5C(F)(F)F)C4)[C@H](C)C3)c(C#N)cnc2c1` [Example 64, 4-[(3S,4S)-3-methyl-4-{[3-(trifluoromethyl)-5,6-dihydro[1,2,4]triazolo[4,3-a]pyrazin-7(8H)-yl]carbonyl}piperidin-1-yl]-7-(propan-2-yloxy)quinoline-3-carbonitrile]: half-maximal inhibition (IC50) was put at 0.3 nM.

The compound `C[C@@H]1CN(c2c(C#N)cnc3cc(-c4ncco4)ccc23)CC[C@@H]1C(=O)N1CCn2c(nnc2C(F)(F)F)C1` [Example 89, 4-((3S,4S)-3-methyl-4-(3-(trifluoromethyl)-5,6,7,8-tetrahydro-[1,2,4]triazolo[4,3-a]pyrazine-7-carbonyl)piperidin-1-yl)-7-(oxazol-2-yl)quinoline-3-carbonitrile] returned an IC50 of 0.4 nM.

Compound `C[C@@H]1CN(c2c(C#N)c[n+]([O-])c3cc(OCC4CC4)ccc23)CC[C@@H]1C(=O)N1CCn2c(nnc2C(F)(F)F)C1` [Example 71, 7-(cyclopropylmethoxy)-4-[(3S,4S)-3-methyl-4-{[3-(trifluoromethyl)-5,6-dihydro[1,2,4]triazolo[4,3-a]pyrazin-7(8H)-yl]carbonyl}piperidin-1-yl]quinoline-3-carbonitrile 1-oxide] gave a half-inhibitory concentration (IC50) of 0.54 nM.

As to `COc1ccc2c(N3CC[C@H](C(=O)N4CCn5c(nnc5C(F)(F)F)C4)[C@H](C4CC4)C3)c(C#N)cnc2c1F` [Example 77b, 4-[(3S,4S)-3-cyclopropyl-4-{[3-(trifluoromethyl)-5,6-dihydro[1,2,4]triazolo[4,3-a]pyrazin-7(8H)-yl]carbonyl}piperidin-1-yl]-8-fluoro-7-methoxyquinoline-3-carbonitrile], the IC50 came to 1.8 nM.

Regarding `Cc1nc2ccc(Br)cc2c(N2CCC(C(=O)N3CCn4c(nnc4C(F)(F)F)C3)CC2)c1C#N` [Example 48, 6-bromo-2-methyl-4-(4-(3-(trifluoromethyl)-5,6,7,8-tetrahydro-[1,2,4]triazolo[4,3-a]pyrazine-7-carbonyl)piperidin-1-yl)quinoline-3-carbonitrile], the IC50 is 109 nM.

On to `Cc1nc2c(F)cc(F)cc2c(N2CCC(C(=O)N3CCn4c(nnc4C(F)(F)F)C3)CC2)c1C#N` [Example 49, 6,8-difluoro-2-methyl-4-(4-(3-(trifluoromethyl)-5,6,7,8-tetrahydro-[1,2,4]triazolo[4,3-a]pyrazine-7-carbonyl)piperidin-1-yl)quinoline-3-carbonitrile], for which the IC50 came to 1730 nM.

In turn, `CC1CC(C(=O)N2CCn3c(nnc3C(F)(F)F)C2)CCN1c1c(C#N)cnc2ccc(Cl)cc12` (single isomer, unassigned) [Example 73a, 6-chloro-4-[(2R,4R) or (2S,4S)-2-methyl-4-{[3-(trifluoromethyl)-5,6-dihydro[1,2,4]triazolo[4,3-a]pyrazin-7(8H)-yl]carbonyl}piperidin-1-yl]quinoline-3-carbonitrile] showed an IC50 of 6.4 nM.

In turn, `C[C@@H]1CN(c2c(C#N)cnc3c(F)cc(C4CCC4)cc23)CC[C@@H]1C(=O)N1CCn2c(nnc2C(F)(F)F)C1` [Example 87, 6-cyclobutyl-8-fluoro-4-((3S,4S)-3-methyl-4-(3-(trifluoromethyl)-5,6,7,8-tetrahydro-[1,2,4]triazolo[4,3-a]pyrazine-7-carbonyl)piperidin-1-yl) quinoline-3-carbonitrile] displayed an IC50 of 0.3 nM.

Compound `C[C@@H]1CN(c2c(C#N)cnc3cc(C4CC4)ccc23)CC[C@@H]1C(=O)N1CCn2c(nnc2C(F)(F)F)C1` [Example 63] yielded a half-maximal inhibitory concentration (IC50) of 1.1 nM.

For the compound `C[C@@H]1CN(c2c(C#N)cnc3c(F)cc(C4CC4)cc23)CC[C@@H]1C(=O)N1CCn2c(nnc2C(F)(F)F)C1` [Example 86, 6-cyclopropyl-8-fluoro-4-((3S,4S)-3-methyl-4-(3-(trifluoromethyl)-5,6,7,8-tetrahydro-[1,2,4]triazolo[4,3-a]pyrazine-7-carbonyl)piperidin-1-yl)quinoline-3-carbonitrile], inhibition was half-maximal at 0.4 nM (IC50).

For `C[C@@H]1CN(c2c(C#N)cnc3cc(Br)ccc23)CC[C@@H]1C(=O)N1CCn2c(nnc2C(F)(F)F)C1` [Example 4, 7-bromo-4-[(3S,4S)-3-methyl-4-{[3-(trifluoromethyl)-5,6-dihydro[1,2,4]triazolo[4,5-a]pyrazin-7(8H)-yl]carbonyl}piperidin-1-yl]quinoline-3-carbonitrile], the IC50 worked out at 0.36 nM.

Turning to `COc1ccc2c(N3CC[C@H](C(=O)N4Cc5nnc(C(F)(F)F)n5C(C)(C)C4)[C@H](C)C3)c(C#N)cnc2c1F` [Example 82, 4-((3S,4S)-4-(5,5-dimethyl-3-(trifluoromethyl)-5,6,7,8-tetrahydro-[1,2,4]triazolo[4,3-a]pyrazine-7-carbonyl)-3-methylpiperidin-1-yl)-8-fluoro-7-methoxyquinoline-3-carbonitrile], half-maximal inhibition (IC50) was put at 58 nM.

In turn, `C[C@@H]1CN(c2c(C#N)cnc3cc(OCC(F)F)ccc23)CC[C@@H]1C(=O)N1CCn2c(nnc2C(F)(F)F)C1` [Example 102, 7-(2,2-difluoroethoxy)-4-[(3S,4S)-3-methyl-4-{[3-(trifluoromethyl)-5,6-dihydro[1,2,4]triazolo[4,3-a]pyrazin-7(8H)-yl]carbonyl}piperidin-1-yl]quinoline-3-carbonitrile] yielded an IC50 of 0.33 nM.
